The assay deals with fat mass and obesity-associated protein (FTO) (Homo sapiens, UniProt Q9C0B1). In words: FTO demethylase assay with ssRNA substrate, nucleosides detected by LC/MS. The format is biochemical.
Chain of fat mass and obesity-associated protein (FTO) (Q9C0B1 whole entry): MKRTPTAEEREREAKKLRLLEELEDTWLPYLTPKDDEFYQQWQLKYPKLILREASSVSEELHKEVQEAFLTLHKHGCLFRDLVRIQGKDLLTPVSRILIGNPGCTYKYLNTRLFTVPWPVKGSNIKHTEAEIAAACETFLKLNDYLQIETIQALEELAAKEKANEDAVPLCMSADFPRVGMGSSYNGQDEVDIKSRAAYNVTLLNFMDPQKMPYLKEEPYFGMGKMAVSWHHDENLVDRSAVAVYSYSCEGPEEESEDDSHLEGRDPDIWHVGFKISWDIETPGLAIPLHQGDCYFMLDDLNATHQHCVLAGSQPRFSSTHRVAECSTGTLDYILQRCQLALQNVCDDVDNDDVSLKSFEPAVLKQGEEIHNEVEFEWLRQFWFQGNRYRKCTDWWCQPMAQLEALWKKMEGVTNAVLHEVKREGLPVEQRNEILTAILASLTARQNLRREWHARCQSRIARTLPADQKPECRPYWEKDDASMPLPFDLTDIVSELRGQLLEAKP

`COc1c(C)cnc(Cn2cc(CNC(=O)c3c(F)c(F)c(F)c(F)c3F)nn2)c1C` [C6, 2,3,4,5,6-Pentafluoro-N-((1-((4-methoxy-3,5-dimethylpyridin-2-yl)methyl)-1H-1,2,3-triazol-4-yl)methyl)benzamide] returned an IC50 of 0.78 µM. In other words, the sub-micromolar range. With `O=C(NCc1cn(Cc2nc3ccccc3[nH]2)nn1)c1c(F)c(F)c(F)c(F)c1F` [C8, N-((1-((1H-benzo[d]imidazol-2-yl)methyl)-1H-1,2,3-triazol-4-yl)methyl)-2,3,4,5,6-pentafluorobenzamide] the figure was 8.67 µM.

(Values after publication PMC9291647, “Discovery of novel mRNA demethylase FTO inhibitors against esophageal cancer” (Journal of Enzyme Inhibition and Medicinal Chemistry, 2022).)
